Assay results from patent US20210236513A1, “NOVEL USES” (ZARODEX THERAPEUTICS LIMITED, priority 2018, published 2021).

Legend:
CD20 = target: T1, CD20 (Homo sapiens, UniProt P11836); details: Arnold et al., 2017; Khellaf et al., 2014; cited from earlier work
T1 construct: host or cells: B cells of patients in vivo
T1 sequence (P11836 1-297): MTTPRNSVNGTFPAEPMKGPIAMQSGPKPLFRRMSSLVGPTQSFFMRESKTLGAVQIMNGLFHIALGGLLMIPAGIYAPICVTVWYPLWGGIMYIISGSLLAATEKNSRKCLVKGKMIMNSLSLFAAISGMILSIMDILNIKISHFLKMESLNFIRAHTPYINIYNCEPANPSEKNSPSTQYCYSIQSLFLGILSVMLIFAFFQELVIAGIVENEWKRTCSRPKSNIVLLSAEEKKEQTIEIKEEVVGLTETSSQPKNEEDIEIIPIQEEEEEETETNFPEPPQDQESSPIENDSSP

serum IgG, IgA and IgM = assay: Serum immunoglobulins in clozapine patients referred to Immunology clinic; format: in vivo, human
[1] = Wild type mouse study, body weight; format: in vivo, C57BL/6 mice; details: 5 mg/kg and 10 mg/kg IP once daily; maximal by 3 days, recovering fully to baseline by day 9
[2] = test system: serum/plasma IgG, IgA, IgM; details: cited from earlier work
[3] = test system: IgG to Haemophilus influenza B, Pneumococcus and Tetanus; details: human, in vivo
[4] = test system: B220+ B cells, plasma cells, germinal centre B cells; assay: CIA model, B cell subsets in spleen and lymph nodes by FACS; format: in vivo, DBA/1 mice
[5] = test system: total peripheral blood B-cells from healthy donors differentiating to plasmablasts and plasma cells
[6] = test system: specific antibody levels against Haemophilus B (Hib), Tetanus and Pneumococcus; set-up: species or system human; details: in vivo
[7] = test system: treatment-resistant schizophrenia; details: schizophrenic patients; cited from earlier work
[8] = Infection questionnaire, antibiotic courses and hospital admissions, same case control study; format: in vivo, human
[9] = test system: circulating B cell subsets; assay: Second observational study (interim), peripheral blood B cell subsets by FACS; format: in vivo, human; details: interim analysis
[10] = Michel et al., 2015; cited from earlier work
[11] = test system: anti-type II collagen IgG1 and IgG2a; assay: CIA model, anti-collagen immunoglobulin by ELISA; format: in vivo, DBA/1 mice
[12] = test system: collagen-induced arthritis; assay: Collagen-induced arthritis (CIA) model, onset, clinical score and paw-swelling; format: in vivo, DBA/1 mice
Excerpt: Adult (age 13-15 weeks) DBA/1 male mice were purchased from Envigo (Horst, Netherlands). […] 1. […] All experiments were approved by the Clinical Medicine Animal Welfare and Ethical Review Body (AWERB) and by the UK Home Office. DBA/1 mice were immunised with bovine type II collagen in CFA and monitored daily for onset of arthritis. […] Controls received vehicle (saline) alone. Treatment of mice commenced in one experiment on day 1 after immunisation and in a second experiment on day 15 after immunisation. Clinical scores and paw-swelling were monitored for 10 days following onset of arthritis. A clinical scoring system was used as follows. Arthritis severity was scored by an experienced, non-blinded investigator as follows: 0=normal, 1=slight swelling and/or erythema, 2=pronounced swelling, 3=ankylosis. […] Data were analyzed by one-way ANOVA with Tukey's or Dunnett's multiple comparison test or two-way ANOVA with Tukey's multiple comparison test as appropriate. All calculations were made using GraphPad Prism software.

[13] = test system: circulating total IgG, IgA, IgM and pneumococcal-specific IgG; assay: Second observational study (interim), circulating immunoglobulins; format: in vivo, human; details: interim analysis
[14] = test system: T follicular helper cells (CD4+ PD1+ CXCR5+); assay: CIA model, T follicular helper cells by FACS; format: in vivo, DBA/1 mice
[15] = test system: bone marrow B cell subsets; assay: Wild type mouse study, bone marrow B cell immunophenotyping by flow cytometry
[16] = test system: class switched memory B cells, plasmablasts and other B cell subsets
[17] = test system: splenic B cell and T cell populations; assay: Wild type mouse study, spleen immunophenotyping by flow cytometry
[18] = test system: Immunoglobulin levels (IgG, IgA and IgM); assay: Serum immunoglobulin levels by nephelometry, cross-sectional case control study of clozapine-treated vs clozapine-naive patients; format: in vivo, human
[19] = outpatients on clozapine for at least five years (Lozano et al., 2016)
[20] = six weeks treatment (Hinze-Selch et al., 1998)
[21] = clozapine-treated patients post-exclusion, n=94
[22] = number of admissions, clozapine-treated patients
[23] = 10 mg/kg clozapine IP, 21 days, FIG. 18
[24] = FIG. 3B, referred clozapine patients

For rituximab, the “Patients with ITP in whom platelet count improved” value (CD20) is listed as ~60%.

In the case of `CN1CCN(C2=Nc3cc(Cl)ccc3Nc3ccccc32)CC1` [Clozapine, clozapine], the “Serum IgA after clozapine was stopped” value (serum IgG, IgA and IgM; one patient, after 24 months) is reported as 0.29 g/L, the “Serum IgM after clozapine was stopped” value (serum IgG, IgA and IgM; one patient, after 24 months) is reported as 0.49 g/L and the “Mean IgA” value (serum IgG, IgA and IgM; referred clozapine patients) is reported as 0.34 g/L. The “Mean IgG” value (serum IgG, IgA and IgM; referred clozapine patients) was 3.6 g/L, the “Mean IgM” value (serum IgG, IgA and IgM; referred clozapine patients) was 0.21 g/L and the Body weight [1] was “transient fall in body weight”. The “IgA, IgG, absolute neutrophil count and white blood cell count vs control group” value [2, 19] was “no differences were found”, the “Mean plasma levels of IgM vs control group” value [2, 19] was “overall decrease” and the “IgA or IgM concentrations, pattern of autoantibodies” value [2, 20] was “no significant effect”. The “Serum concentrations of IgG” value [2, 20] was “significant increases”, the “Individuals failing to develop an IgG response above ≥50 mg/L” value [3] was 73% and the “Individuals failing to mount a Haemophilus-IgG response ≥1 mcg/ml” value [3] was 42%. The “Patients with IgG to Haemophilus influenza B (HiB) <1 mcg/ml at initial assessment” value [3] was 75%, the “Patients with Pneumococcus-IgG <50 mg/L at initial assessment” value [3] was 94% and the “Patients with Tetanus-IgG <0.1 IU/mL at initial assessment” value [3] was 38%. For the same compound, the “Vaccine response of individual referred patient” value [3] was “Failure to responds to”, the “Proportion of plasma cells in spleen” value ([4]; 10 mg/kg clozapine given on day 1, FIG. 30) was “significant reduction” and the “Proportion of B220+ B cells in spleen” value ([4]; 10 mg/kg from day 1) was “significantly reduced”. The “Level of GL7 expression on follicular B cells in lymph node” value ([4]; all clozapine treatment groups vs vehicle, FIG. 32) was “significantly decreased”, the “Percentage of B220+ B cells in lymph nodes” value ([4]; all doses and time points (5 or 10 mg/kg from day 1 or day 15), FIG. 29) was “significantly lower percentage” and the “Lymph node follicular B cells (B220+IgD-Fas+GL7hi)” value ([4]; all doses/both time points, FIG. 31) was “Strikingly significant reductions”. For the same compound, the “Direct toxicity to differentiating B-cells” value [5] was “no direct toxicity effect”, the “IgM-Pneumococcus, mean (SEM in the line below)” value [6] was 58.5 U/L and the “Previously treatment refractive patients in whom effective” value [7] was “approximately 60%”. For the same compound, the “Admitted to hospital with infection” value ([8]; clozapine group vs 0.06 in controls) was 0.12 per patient year, the “Antibiotic courses per year: 1-5 courses, percentage of patients” value [8, 21] was 33.0% and the “Antibiotic courses per year: >5 courses, percentage of patients” value [8, 21] was 5.3%. The “Antibiotic courses per year: nil courses, percentage of patients” value [8, 21] was 61.7%, the “Antibiotic courses per year: >5 courses, percentage of patients” value ([8]; clozapine-treated patients post-exclusion, n=94, listed as clozapine) was 5.3% and the “Admission frequency in 12-month period, all cause” value [8, 22] was 21. For the same compound, the “Admission frequency in 12-month period, infection-related” value [8, 22] was 15, the “Overall CD19+ B cell numbers vs clozapine naive” value ([9]; FIG. 8A-B) was “not significantly different” and the “Naive (CD19+ CD27-) B cells as a proportion of total CD19+ B cells” value ([9]; FIG. 9A-C) was “Small increase”. The “Overall memory B cell pool” value ([9]; FIG. 10A-C) was “without perturbation”, the “IgMhi IgDlo memory B cell subpopulation” value ([9]; FIG. 12A-C) was “without perturbation” and the “Circulating levels of transitional B cells” value ([9]; FIG. 13A-C) was “No significant difference”. The “Circulating levels of marginal zone B cells” value ([9]; FIG. 14A-C) was “No significant difference”, the “Class-switched memory B cells (CD27+ IgM- IgD- as % B)” value ([9]; P=0.06 vs control, FIG. 11A-C) was “Strong trends to a specific reduction” and the Levels of plasmablasts ([9]; P=0.07 vs control clozapine naive, FIG. 15A-C) was “Strong trends to reduction”. The CNS penetration [10] was “high levels of CNS penetration”, the “Reduction of anti-type II collagen IgG1” value ([11]; 10 mg/kg from day 15, FIG. 33) was “reaching statistical significance” and the “Serum anti-type II collagen IgG2a” value ([11]; 5 or 10 mg/kg from day 1 or day 15, single time point, FIG. 33) was “no significant impact”. For the same compound, the “Levels of anti-type II collagen IgG1” value ([11]; across all doses tested, FIG. 33) was “nominal reductions”, the “Swelling of the first affected paw” value ([12]; 10 mg/kg clozapine from day 1, FIG. 27) was “reduced swelling of the first affected paw” and the Arthritis onset ([12]; both doses of clozapine (5, 10 mg/kg) from day 1) was “extremely effective in delaying arthritis onset”. The Overall clinical score ([12]; both doses, administered on day 1, FIG. 27) was “reduced overall clinical score”, the “Onset of arthritis post-immunisation” value ([12]; clozapine 5 or 10 mg/kg IP daily from day 1 or day 15, FIGS. 25 and 26) was “significantly effective in delaying the onset” and the “Incidence of CIA” value ([12]; most apparent when dosed just after CII immunisation, FIG. 26) was “reduces the incidence”. The “Total number of affected paws compared to vehicle control” value ([12]; significant with dosing at D1, FIG. 28) was “reduced the total number of affected paws”, the “Levels of circulating total IgG, IgA and IgM vs clozapine naive” value ([13]; FIG. 6A-C) was “Significantly reduced” and the “IgG antibodies against pneumococcus vs clozapine naive” value ([13]; FIG. 7) was “trend to lower”. For the same compound, the “Proportions of CD4+PD1+CXCR5+ T follicular helper cells in lymph node or spleen” value ([14]; 5 or 10 mg/kg from day 1 or day 15, FIG. 34) was “did not significantly affect”, the “Expression of PD-1 in lymph node T follicular helper cells (MFI)” value ([14]; all doses and time points, FIG. 35) was “Reduced expression of PD-1” and the “CXCR5 expression on T follicular helper cells (MFI)” value ([14]; dosed from day 1, lymph node and spleen, FIG. 36) was “significant reductions”. For the same compound, the “Expression of CCR7 on germinal centre resident T follicular helper cells” value ([14]; lymph node and spleen, FIG. 37) was “reduction in expression of CCR7”, the “Pro-B cell fraction in bone marrow” value [15, 23] was “without any change” and the “Proportion of pre-pro B cells in bone marrow” value [15, 23] was “significant increase”. For the same compound, the “Percentage of immature B cells in bone marrow” value ([15]; FIG. 19) was “reduction”, the “Overall B cells in the bone marrow” value ([15]; any dose of clozapine (2.5, 5, 10 mg/kg IP, 21 days), FIG. 18) was “No overall reduction” and the “Pre-B cells in bone marrow” value ([15]; dose-dependent, significant vs control even at 2.5 mg/kg, FIG. 19) was “reduction”. The “Percentage of proliferating pre-B cells in bone marrow” value ([15]; reaching significance for the 5 mg/kg dose, FIG. 19) was “diminished”, the “CSMB vs healthy controls” value [16, 24] was “significant reduction” and the “Marginal zone B cell numbers vs healthy control” value [16, 24] was “no significant difference”. For the same compound, the “Total B cell numbers vs CVID and healthy controls” value [16, 24] was “similar”, the “Overall lymphopenia or B cell lymphopenia” value ([16]; human, in vivo) was “no severe overall lymphopenia or B cell lymphopenia” and the “Activated T cells (B220+TCR-β+) in spleen compared to control” value ([17]; FIG. 21) was “reduced in dose-dependent fashion”. The “Other splenic cell populations (B220-TCR-β-)” value ([17]; FIG. 21) was “No effect”, the “Percentage of splenic T cells (B220-TCR-β+)” value ([17]; FIG. 21) was “reciprocal increase” and the “Splenic follicular B cell subset” value ([17]; FIG. 22) was “no specific reductions”. For the same compound, the “Splenic marginal zone B cell subset” value ([17]; FIG. 22) was “no specific reductions”, the “Proportion of T2 B cells in the spleen” value ([17]; across all doses of clozapine, FIG. 22) was “small increase” and the “Percentage of splenic B cells (B220+TCR-β-) of total live splenocytes” value ([17]; clozapine at 5 mg/kg and 10 mg/kg, FIG. 21) was “significantly lower percentage”. For the same compound, the “Proportion of transitional stage 1 (T1) B cells in the spleen” value ([17]; including at the 2.5 mg/kg dose, FIG. 22) was “mildly reduced proportion”, the “Germinal centre cells in the spleen versus control or haloperidol” value ([17]; steady state, FIG. 22) was “no differences observed” and the “Concentrations of IgG, IgA and IgM vs clozapine-naive control group” value ([18]; human, in vivo) was “significantly reduced”. For the same compound, the “Effect of duration of clozapine therapy on serum IgG” value ([18]; p 0.014, FIG. 2, not observed in clozapine-naive patients) was “associated with lower serum IgG levels”.

In the case of `O=C(CCCN1CCC(O)(c2ccc(Cl)cc2)CC1)c1ccc(F)cc1` [Haloperidol, haloperidol], the “Activated T cells (B220+TCR-β+) in spleen compared to control” value ([17]; FIG. 21) is reported as “also modestly apparent”.

For `Clc1ccc2c(c1)N=C(N1CCNCC1)c1ccccc1N2` [Norclozapine, norclozapine], the “Direct toxicity to differentiating B-cells” value [5] was “no direct toxicity effect”.
